Laboratory results as given in US20060051295A1, “Estrogen receptor interaction with a transcription factor” (priority 2002, published 2006).

Assays:
cRel = assay: Yeast two-hybrid cRel, no partner; assay type: cell-based
Excerpt: A yeast two-hybrid assay is a cellular method to quantify the degree of interaction between two proteins. This is done by producing constructs that encode for fusion proteins of the two proteins to be studied, in this case ER and c-Rel, with either the transactivating or DNA binding part of the Gal4. The transactivating and DNA binding part of gal are separately not capable of inducing reporter activity of a gal4-responsive β-galactosidase reporter construct. Due to the interaction of the two proteins the transactivating and DNA binding parts of Gal4 will come in close proximity and as a result induction of a gal-responsive reporter will occur. More specificcally, in this embodiment of the invention the estrogen receptor is fused to the DNA binding domain (DBD) of Gal4, whereas c-Rel is fused to the activation domain (AD) of Gal4. The ER/Gal4-DBD fusion protein will bind to Gal4 response elements that are upstream of the reporter gene β-galactosidase in the yeast strain. Interaction between ER and c-Rel is compound dependent, therefore increasing concentrations of compound in the in vitro system will increase the number of ER and cRel molecules that interact, that can be measured as an increase of β-galactosidase reporter activity until saturation levels are reached. The amount of β-galactosidase reporter activity therefore is a measure for the degree of interaction between estrogen receptor and c-Rel.
Table 5. […] In this assay format, ERα (or ERβ) was fused to the DNA binding domain of GAL4 whereas c-Rel (or RelA) was fused to the activation domain of GAL4. Interaction between ER and NF-κB yields a transcriptionally active complex, that induces the LacZ reporter gene which results in quantifiable β-galactosidase activity. n.d. means: not determined.
pKCRE-ERα, pKCRE-ERβ and pNGV1-GR contain the human wild-type estrogen receptor α (ERα), ERβ or GR respectively under control of the SV40 promoter. The pCMV4-c-Rel expression vector was produced by cloning of the coding region of c-Rel into the pCMV4 vector (Andersson et al., 1989). pGL3-ELAM, pGL3-VCAM and pGL3-ICAM have been constructed based on PCR using the sequences as outlined in appendix 1. The luciferase reporter plasmid 3*NF-κB-TK was constructed by inserting three repeats of the NF-κB binding site from the ICAM promoter (van de Stolpe et al.; J. Biol Chem. 269: 6185-6192. 1994) in front of the herpes simplex virus thymidine kinase (HSV-TK) promoter. The TK promoter was cloned into the Bgl II-site of pGL3-basic (Promega). The triple repeat of NF-κB binding sites was constructed by annealing the oligonucleotide primers 5′-[…]-3′ and 5′-[…]-3′ followed by PRC amplification and subcloning in the pCR™2.1 vector. The insert was excised using HindIII, blunted with Klenow DNA polymerase and ligated into the SmaI site of pGL3-tk-luc. 4xERE-TATA Luc (plasmid nr. 460) contains four repeats of an estrogen responsive element followed by a TATA box and a luciferase gene. The pSV-β-Galactosidase (pSVβ) control vector (Promega) served as a positive control vector for monitoring transfection efficiencies of mammalian cells. The SV40 early promoter and enhancer drive transcription of the LacZ gene which encodes the β-Galactosidase enzyme. The yeast 2-hybrid constructs pGAD424-ERα, pGAD424-ERαdAB and pGAD424-ERβ were constructed by cloning respectively the human ERα, the ERα without the AB domain and the human ERβ cDNA in pGAD424. pGAD424-ERα LBD was constructed by cloning the LBD of ERα, obtained by PCR, in the EcoRI and SalI sites of pGAD424 vector. pGBT9-c-Rel was constructed by cloning the c-Rel fragment, obtained by PCR on pCMV4-c-Rel in the EcoRI and BamHI sites of pGBT9. The p65/RelA cDNA was obtained by PCR on the pCMV4-p65.

IL-6 promoter = IL-6 promoter reporter in U-2 OS with ERα and NF-κB proteins / c/EBPβ; assay type: cell-based, human
Method: To determine the role of functional ERα/c-Rel interactions in repression of IL-6 production by estrogens, we analysed the effect of various combinations of ERα and NF-κB proteins on IL-6 production using a reporter construct containing the promoter of the IL-6 gene.
For transient transfections, cells were seeded in 6-well plates (2.10^5 cells/well). After two or three days the cells were transfected with reporter, expression vectors and β-galactosidase control vector. Two different experimental settings were used. For testing transrepression of IL-1β induced promoter activity, cells were transfected with 1 μg reporter construct, 1 μg expression vector (containing either ERα, ERβ or GR), and 0.25 μg of β-galactosidase control plasmid. For testing transrepression in combination with c-Rel or ReLA overexpression, cells were transfected with 1 μg reporter construct, 1 μg expression vector (containing either ERα, ERβ or GR) and 0.1 or 1.0 μg expression vector containing c-Rel or RelA and 0.25 μg of β-galactosidase control vector. Equivalent amounts of DNA were obtained by adding the appropriate expression vector that lacks an insert. Transient transfection was performed using lipofectin reagent (Life Technologies). […] The transfected cells were incubated overnight with test compounds prior to cell lysis. Measurement of luciferase and P-galactosidase activity were performed using respectively the luciferase assay system (Promega) and Galacto-light plus (Tropix) according to the manufacturers' protocols and measured on the Victor 1420 multilabel counter, Wallac.

## C[C@]12CC[C@@H]3c4ccc(O)cc4CC[C@H]3[C@@H]1CC[C@@H]2O [Org E2, 17β-estradiol]
cRel; E2 0.0003 nM
  β-galactosidase activity: 1251
cRel; E2 0.003 nM
  β-galactosidase activity: 1135
cRel; E2 0.01 nM
  β-galactosidase activity: 1093
cRel; E2 0.03 nM
  β-galactosidase activity: 1202
cRel; E2 0.1 nM
  β-galactosidase activity: 1204
cRel; E2 0.3 nM
  β-galactosidase activity: 1202
cRel; E2 1 nM
  β-galactosidase activity: 1145
cRel; E2 3 nM
  β-galactosidase activity: 1246
cRel; E2 10 nM
  β-galactosidase activity: 1146
cRel; E2 30 nM
  β-galactosidase activity: 1411
cRel; E2 100 nM
  β-galactosidase activity: 1261
IL-6 promoter; ERα + C/EBPβ
  luciferase activity, IL-6 promoter reporter: 2585
IL-6 promoter; ERα + RelA
  luciferase activity, IL-6 promoter reporter: 19401
IL-6 promoter; ERα + RelA + c/EBPβ
  luciferase activity, IL-6 promoter reporter: 92837
IL-6 promoter; ERα + RelA + p50
  luciferase activity, IL-6 promoter reporter: 8232
IL-6 promoter; ERα + c/EBPβ + p50
  luciferase activity, IL-6 promoter reporter: 1724
IL-6 promoter; ERα + cRel
  luciferase activity, IL-6 promoter reporter: 1807
IL-6 promoter; ERα + cRel + RelA
  luciferase activity, IL-6 promoter reporter: 23381
IL-6 promoter; ERα + cRel + c/EBPβ
  luciferase activity, IL-6 promoter reporter: 6459
IL-6 promoter; ERα + cRel + p50
  luciferase activity, IL-6 promoter reporter: 1814
IL-6 promoter; ERα + p50
  luciferase activity, IL-6 promoter reporter: 1447
IL-6 promoter; ERα, no NF-κB protein
  luciferase activity, IL-6 promoter reporter: 1310
